In US20130052654A1, “Amyloid Precursor Protein E2 Domain and Uses Thereof” (Leibniz Institute For Age Research - Fritz Lipmann …, priority 2011, published 2013):
Where “and” joins values, the source holds several entries; their conditions need not be identical. Equal values may be shown once. Read-outs that look alike come from different tables or passages of the source. Marks after values point to notes of the source that are not given here.

Assays:
[1] = target: T1, APP-E2 (Homo sapiens, UniProt P05067); test: Isothermal titration calorimetry (ITC) of metal binding to APP-E2; conditions: for n1: ITC stoichiometry, first site; for dH1: Cu in Tris, Zn in Hepes, pH 7.3
T1 construct: APP-E2 comprising Ser295-Asp500 (numbering according to APP695); hexa-histidine tag (C, cleaved yes); made in house; host or cells: E. coli BL21(DE3)pRIL
Protocol: ITC was performed at the same conditions as the metal retention assays in a NANO ITC calorimeter (TA Instruments, USA) adding 0.4 mM CuCl2 in 6 μl injections or 0.4 mM ZnCl2 in 11 μl injections to the cell containing 40 μM protein. Blank enthalphies for titrations of metals in buffer were subtracted from peak integrals. Binding constants were calculated with the NanoAnalyze program (TA Instruments, USA) using a model for a single set of identical binding sites in the case of copper binding. In the case of zinc binding the enthalpic data were fitted to a binding model representing two sets of independent binding sites, accounting for 1 strong binding site and 3.3 weak binding sites (4.3 total Zn^2+ sites) per protein molecule (for further details see supplementary data). All titrations were performed in triplicate. The initially determined KDapp of the APP-E2/Cu complex had to be corrected for competition with the copper ligand Tris (Hatcher et al., 2008) and its pH-dependent protonation. The exact coordination chemistry of Cu^2+ by Tris is, unfortunately, not precisely known, e.g. tertiary Cu(Tris)2 and quinary Cu(Tris)4 complexes are described in the literature. However, all models agree about the formation of a binary Tris-Cu^2+ complex, described by a formation constant pK1(Tris) of ˜4. The corrected KD was calculated according to KD=KDapp(1+ cTris×10^pK^1(Tris)/(1+10^−pH×Ka))^−1 using pK1(Tris)=3.82 (Canepari et al., 1999) and pKa(Tris)=8.1.
The effect of excessive zinc to protein ratios was studied in ITC experiments in three repeating titrations into the same cell solution. Titration was performed in 20 mM Hepes/NaOH pH 7.3, 150 mM NaCl at 20° C., adding a 0.8 mM ZnCl2 solution in 3×22 injections to 40 μM APP-E2, resulting in a final Zn^2+/protein ratio of 22. The molar ratios for titration experiment 2 and 3 were calculated neglecting intermixture of cell volume and slight volume changes occurring after refill of the syringe. Blank enthalphies for titrations of metals in buffer were subtracted from peak integrals.

[2] = target: T1, APP-E2; test: CD-spectroscopy melting curves of APP-E2 at 222 nm; type: binding; conditions: 7.5 μM APP-E2, 10 μM metal; inflection point of CD melting curve at 222 nm
Protocol: CD-data were collected on a J-710 spectropolarimeter (Jasco Corporation) in the same buffers used for ITC binding studies adding 7.5 μM APP-E2 and 10 μM zinc or copper. CD-signals were measured at 222 nm upon heating (1° C./min) of the samples from 20° C. to 90° C. The blank signals produced by the buffers at 20° C. were subtracted as constant values from the melting curves. Indicated melting points correspond to the inflection points of the melting curves determined from the peak of the 1st order derivative calculated using spectra analysis software (Jasco Corporation).

[3] = target: T1, APP-E2; test: Metal retention assay (ultrafiltration); type: binding; conditions: 50 μM APP-E2, 75 μM metal, concentrated 8-fold
Protocol: 50 μM APP-E2 (without His-tag) and 75 μM CuCl2 in 50 mM Tris/HCl pH 7.3, 150 mM NaCl or 75 μM ZnCl2 in 20 mM Hepes/NaOH pH 7.3, 150 mM NaCl was concentrated 8-fold at 20° C. using Vivaspin 500 ultrafiltration devices with 5.000 MWCO PES membranes (Sartorius stedim biotech). Samples without protein, or containing 50 μM lysozyme instead of APP-E2, served as controls. Metal ions in the retenate were quantified by a spectrophotometric method (Sabel et al., 2010). Each experiment was performed in triplicate and the average ratio of the change in concentration relative to the starting concentration (c-c0/c0) was plotted.

[4] = target: T1, APP-E2; test: Limited proteolysis with Trypsin; type: biochemical; conditions: 40 μM metal, 20 μM protein, 0.5 μg/ml Trypsin
Protocol: Limited proteolysis was performed in 20 mM HEPES, 150 mM NaCl at pH 7.4 containing 0.5 μg/ml Trypsin (Calbiochem) and 20 μM purified protein (α-casein as control). Copper or zinc were supplemented at 40 μM to the Samples. Reactions were stopped after 30 and […] by addition of 10 mM PMSF and analyzed by SDS-PAGE. Protease cleavage sites were characterized by Edman sequencing (Procise 494A, Applied Biosystems, Foster City, Calif., USA). Limited proteolysis results shown were reproduced in three independent experiments.

[5] = target: T2, full length APP (Homo sapiens, UniProt P05067); conditions: cited from earlier work
T2 construct: previously reported for full length APP (0.75 μM) (Bush et al., 1993)

[6] = target: T1, APP-E2; test: Determination of total Zn2+ binding sites on APP-E2
Protocol: The protein was saturated with 10 mM ZnCl2 in 20 mM Hepes/NaOH pH 7.3, 150 mM NaCl resulting in quantitative precipitated of the protein. The precipitate was washed with buffer until a stable equilibrium ratio of zinc saturated protein in the liquid phase and the solid phase was reached. The concentration of Zn (Sabel et al., 2010) and protein (Bradford, 1976) were determined after each wash step in the liquid phase (supernatant) after […] centrifugation at 16,000 g. The ratio between [Zn^2+] and [APP-E2] at equilibrium conditions corresponds to the total number of zinc binding sites per protein molecule, which was determined to be 4.3+/−0.2 (FIG. 10B). Subtraction of one strong intra-molecular binding site yields the number of intermolecular binding sites of as 3.3.

[7] = target: T1, APP-E2; test: GPC and GPC coupled SLS, oligomerization state with heparin; type: binding; conditions: 50 μM APP-E2, 100 μM heparin; for MWSLS of APP-E2: GPC coupled SLS, absolute molecular weight; for MWrh of APP-E2: GPC, apparent molecular weight
Protocol: Analytical GPC and SLS studies were performed in 150 mM NaCl, 10 mM Sodium phosphate buffer, pH 7.3, on a calibrated (MWGF70, Sigma) Superdex200 10/300 GL column (GE Healthcare) using 50 μM APP-E2. Where applicable, a ˜3.6 kDa heparin preparation (Reviparin-Sodium, Abott) was added at 100 μM to the protein and the buffer. SLS data were recorded using VE 3580 RI and 270 Dual detectors (Viscotek, USA) and analyzed using software provided by the manufacturer. Given data represent average values±standard deviation of three independent experiments.

[8] = target: the molecule itself; test: gel permeation chromatography and GPC-coupled static light scattering, without and with low molecular weight heparin (self-association test)
Protocol: All intermolecular contacts identified in the crystals analysed with the PISA server (Krissinel and Henrick, 2007) result from crystal packing, evidenced by the calculated complexation significance scores (CSS) that are equal to 0. Consequently, the protomer contacts are predominantly stabilized by the intermolecular coordinated cadmium ions. […] To investigate this observation further, the apparent molecular weight was determined based on the hydrodynamic radius (MWᵣₕ) using gel permeation chromatography (GPC) as well as the absolute molecular weight (MWSLS) employing GPC coupled static light scattering (SLS; Supplementary Figure S2). […] The influence of heparin on the oligomerization state of the E2 domain, which was described to promote dimer formation (Lee et al., 2011), was tested.

T2 sequence (P05067 18-770, species assumed): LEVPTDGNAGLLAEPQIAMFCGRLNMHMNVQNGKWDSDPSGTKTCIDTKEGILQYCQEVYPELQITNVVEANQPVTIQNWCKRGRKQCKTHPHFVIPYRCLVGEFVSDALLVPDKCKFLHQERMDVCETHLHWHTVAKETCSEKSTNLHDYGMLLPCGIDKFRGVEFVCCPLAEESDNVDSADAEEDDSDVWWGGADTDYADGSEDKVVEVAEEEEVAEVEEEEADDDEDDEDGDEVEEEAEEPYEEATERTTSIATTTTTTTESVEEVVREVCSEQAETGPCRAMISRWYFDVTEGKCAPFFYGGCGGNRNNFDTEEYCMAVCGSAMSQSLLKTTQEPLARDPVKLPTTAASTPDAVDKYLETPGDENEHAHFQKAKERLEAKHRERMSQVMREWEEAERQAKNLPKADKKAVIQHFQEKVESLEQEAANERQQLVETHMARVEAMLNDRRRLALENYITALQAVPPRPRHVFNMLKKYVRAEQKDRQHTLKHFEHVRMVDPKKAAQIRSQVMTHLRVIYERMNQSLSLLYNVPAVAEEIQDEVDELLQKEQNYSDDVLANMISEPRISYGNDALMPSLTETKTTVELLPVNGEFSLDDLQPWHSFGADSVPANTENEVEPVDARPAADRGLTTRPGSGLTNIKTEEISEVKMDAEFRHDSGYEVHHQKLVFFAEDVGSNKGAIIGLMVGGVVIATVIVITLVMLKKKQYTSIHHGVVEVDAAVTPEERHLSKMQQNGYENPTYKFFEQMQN

Molecule: [Cu+2] [Cu^2+, copper]
- n1 [1]: 0.70 ± 0.03
- dH1 ([1]; ITC): -4.76 ± 0.22 kcal/mol
- Kd ([1]; intersection point with the ordinate, 15-75 mM Tris, read-out: KD from linear extrapolation of apparent KD as function of Tris concentration): ~0.02 µM
- Kd ([1]; minimal model of a Cu2+-Tris 1:1 complex, upper (weakest) limit, listed as copper, read-out: KD corrected for Tris competition): ≤ 0.013 µM
- Kd ([1]; minimal model of a Cu2+-Tris 1:1 complex, upper (weakest) limit, read-out: KD corrected for Tris competition): < 0.013 µM
- melting temperature of APP-E2 [2]: 61.0±0.0 °C
- retention of metal ions upon APP-E2 concentration [3]: accumulated in the retenate
- effect on Trypsin cleavage of APP-E2 [4]: stabilizes especially fragment 1
- Kd ([5]; Hesse et al., 1994, read-out: dissociation constant for full length APP (copper)): 0.01 µM

Molecule: [Zn+2] [Zn^2+, zinc]
- exothermic zinc binding reaction with copper pre-saturated APP-E2 ([1]; ITC competition): completely missing
- n1 [1]: 0.7 ± 0.2
- Kd ([1]; ITC, 20 mM Hepes/NaOH pH 7.3, 150 mM NaCl, two sets of independent sites, strong site, listed as zinc, read-out: KD1, Zn-APP-E2): ≤ 3.9 µM
- Kd ([1]; ITC, 20 mM Hepes/NaOH pH 7.3, 150 mM NaCl, two sets of independent sites, strong site, read-out: KD1, Zn-APP-E2): 3.9 ± 1.5 µM
- Kd ([1]; ITC, Hepes pH 7.3, weak sites, not statistically significant in curve fit, listed as zinc, read-out: KD2, Zn-APP-E2): ≤ 2600 µM
- Kd ([1]; ITC, Hepes pH 7.3, weak sites, not statistically significant in curve fit, read-out: KD2, Zn-APP-E2): 2600 µM
- dH1 ([1]; ITC): -3.97 ± 0.14 kcal/mol
- n2 ([1]; weak sites, determined independently and fixed during curve fit): 3.3^b
- melting temperature of APP-E2 [2]: 64.2±0.3 °C
- total number of zinc binding sites per protein molecule ([6]; ratio [Zn2+]/[APP-E2] at equilibrium after wash steps): 4.3+/−0.2 and 4.3
- number of weak (intermolecular) zinc binding sites ([6]; total minus one strong intramolecular site): 3.3
- retention of metal ions upon APP-E2 concentration [3]: accumulated in the retenate
- effect on Trypsin cleavage of APP-E2 [4]: Trypsin cleavage at Arg385 completely disappeared
- Kd ([5]; Bush et al., 1993, read-out: dissociation constant for full length APP (zinc)): 0.75 µM

Molecule: Reviparin-Sodium [HP]
- MWSLS of APP-E2 [7]: 31.6 ± 0.2 kDa
- MWSLS of APP-E2 ([7]; listed as Clivarin): 31.6 kDa
- MWrh of APP-E2 [7]: 39.2 ± 0.4 kDa
- MWrh of APP-E2 ([7]; listed as Clivarin): 39.2 kDa

B1: APP-E2 comprising Ser295-Asp500 (numbering according to APP695) (other)
chain: STPDAVDKYLETPGDENEHAHFQKAKERLEAKHRERMSQVMREWEEAERQAKNLPKADKKAVIQHFQEKVESLEQEAANERQQLVETHMARVEAMLNDRRRLALENYITALQAVPPRPRHVFNMLKKYVRAEQKDRQHTLKHFEHVRMVDPKKAAQIRSQVMTHLRVIYERMNQSLSLLYNVPAVAEEIQDEVDELLQKEQNYSDD
notes: The C-terminal His tag was cleaved for the biochemical studies; also called E2 domain; human APP-E2 domain; not shown: a few non-native C-terminal residues left after the hexa-histidine tag was cleaved off (factor Xa or V8 protease); their
- binding result [8]: no binding (tested: 50 µM APP-E2)
